Reference: patent publication US20110052667A1, “COMPOSITIONS AND METHODS FOR INHIBITING ANGIOGENESIS AND TUMORIGENESIS” (Sylgen Laboratories, Inc., priority 2007, published 2011)
Entries after “also recorded” stand apart in the source; their conditions may differ.

What was measured:
human EphB4 promoter [1] = test: EphB4 promoter luciferase reporter assay in R+ cells (mouse embryo fibroblasts expressing human IGF-I receptor); assay type: cell-based
Source text: The TAAT motif at position −1365 of the −1500/−7mut construct used in conditions 7-9 was substituted with a TGCT motif by site directed mutagenesis. In FIG. 2, Series 1: Firefly Luciferare signal (pGL3-Luc EphB4 constructs); Seies 2: Renilla Luciferase signal (mock vector); and RLU: Relative Luciferase Units. Conditions: 1-3: −7/−1508 EphB4 promoter region; 4-6: −7/−1028 EphB4 promoter region; 7-9: −7/−1508mut EphB4 promoter construct, wherein: 1. Serum Free, EphB4 promoter −7/−1508; 2. IGF-II, 10 nM, EphB4 promoter −7/−1508; 3.10% FBS, EphB4 promoter −7/−1508; 4. Serum Free, EphB4 promoter −7/−1028; 5. IGF-II, 10 nM, EphB4 promoter −7/−1028; 6.10% FBS, EphB4 promoter −7/−1028; 7. Serum Free, EphB4 promoter −7/−1508mut; 8. IGF-II, 10 nM, EphB4 promoter −7/−1508mut; and 9.10% FBS, EphB4 promoter −7/−1508mut.
In order to establish the role of IGF-II on EphB4 expression, a mouse embryo fibroblast cell line expressing the human IGF-I receptor (R^+ cells) was transiently transfected with three variants of the human EphB4 promoter previously described by Bruhl et al., supra, along with trace amounts of a renilla luciferase mock vector. […] Cell lysates were generated and then assayed for Luciferase activity using a Promega Dual luciferase assay and a Veritas Luminescence reader (Biotek).

human EphB4 promoter [2] = test: EphB4 promoter luciferase reporter assay in R-InsR-A cells (IGF-IR null embryo fibroblasts expressing human InsR-A); assay type: cell-based; conditions: IGF-II 10 nM
Method: In FIG. 3, Series 1: Firefly Luciferare signal (pGL3-Luc −1508/−7 EphB4 construct); Series 2: Renilla Luciferase signal (mock vector); and RLU=Relative Luciferase Units. Conditions: 1. R^+ cells (IGF-IR^+); Serum Free, EphB4 promoter −7/−1508; 2. R^+ cells (IGF-IR^+); IGF-II, 10 nM, EphB4 promoter −7/−1508; 3. R-IRA cells (InsR-A^+); Serum Free, EphB4 promoter −7/−1508; 4. R-IRA cells (InsR-A^+); IGF-II, 10 nM, EphB4 promoter −7/−1508.
In order to establish the role of IGF-II on EphB4 expression, a mouse embryo fibroblast cell line expressing the human IGF-I receptor (R^+ cells) was transiently transfected with three variants of the human EphB4 promoter previously described by Bruhl et al., supra, along with trace amounts of a renilla luciferase mock vector. 24 hrs post-trasfection, the cells were serum starved for 12 hrs and then stimulated (or not) with 10 nM IGF-II for 8 hrs. Cell lysates were generated and then assayed for Luciferase activity using a Promega Dual luciferase assay and a Veritas Luminescence reader (Biotek). […]

“IGF-II: Insulin-like growth factor-II, used at 10 nM to stimulate cells carrying EphB4 promoter reporter constructs” was tested, and the “EphB4 reporter gene activation, promoter with -1500 to -1028 region deleted (-1028 to -7 construct)” value (human EphB4 promoter [1]; 10 nM IGF-II) was “but not when the −1500 to −1028 region is deleted”, the “EphB4 gene activation (reporter gene, full length promoter -1508 to -7)” value (human EphB4 promoter [1]; 10 nM IGF-II for 8 hrs, Dual luciferase assay, compared with serum (10% FBS)) was “able to stimulate EphB4 gene activation at levels comparable to the ones obtained with serum activation; also recorded: causes the activation of the EphB4 reporter gene” and the “EphB4 gene activation (reporter gene, promoter -7/-1508) through InsR-A” value (human EphB4 promoter [2]) was “comparable to that obtained through IGF-IR activation”.
